Measured values reported in patent US12022829B2, “Water-dispersible fine particle” (TOYOBO CO., LTD., priority 2018, dated 2024).

Key:
Type in all cases: cell-based
P. fluorescens biofilm [1] = test: Biofilm removing effect test after immersion in drug (Test example 3); conditions: 1-week biofilm in 48-well microplate, CV staining
Procedure: (§1) A test piece was taken out after the cultivation and washed using normal saline, and a biofilm amount adhered on the test piece surface was measured. The biofilm amount was measured by CV (crystal violet) staining method. Specifically, a test piece was immersed in 0.1 wt % CV aqueous solution for 30 minutes, an excessive CV was washed out using water, an extraction from the stained region was carried out using 98% ethanol, and an absorbance of 500 nm was measured.
SCD broth containing the bacterial liquid of P. fluorescens having a concentration of 10^6 cfu/mL prepared in Test example 1 was added to 48-well microplate manufactured by Sumitomo Bakelite Co., Ltd. for cultivation at 30° C. for 1 week to form a biofilm in the plate. The bacterial liquid as supernatant was removed, and the residue was rinsed using a sterilized normal saline and dried. The test liquid was prepared by a similar method to Test example 2. Specifically, a fine particle suspension was prepared so that a concentration of GPE-ized polycarboxylic acid became 0.5 wt % and a concentration of ε-PL became 0.04 wt % in the suspension. In a microplate in which a biofilm was formed, 1 mL of each test liquid was added to immerse the biofilm for 1 minute, 10 minutes, 30 minutes or 60 minutes to evaluate a biofilm removing effect at every immersion (contact) time. The test drug was removed after a lapse of the immersion (contact) time, and the residue was immediately washed using 1 mL of normal saline two times and dried to measure a biofilm amount by CV staining method described in Test example 2. A biofilm removing rate was calculated by the following formula: Biofilm removing rate (%)=(measurement value of untreatment−measurement value after immersion in test liquid)/(measurement value of untreatment)×100

P. fluorescens biofilm [2] = test: Biofilm inhibition test after immersion in (contact with) drug (Test example 4); conditions: then re-cultivation in SCD broth 30° C. 24 hours, CV staining
Procedure: as §1
In a microplate of Test example 3 in which a biofilm was formed, 1 mL of each test drug was added for an immersion for 1 minute, 10 minutes, 30 minutes or 60 minutes. The test drug was removed after the contact time, and the residue was washed using 1 mL of normal saline two times. In the microplate, 1 mL of SCD broth was added for a cultivation at 30° C. for 24 hours to form a biofilm again and to evaluate a re-inhibition property of a biofilm. An amount of a biofilm was measured after the cultivation. An amount of a biofilm was measured by CV staining method described in Test example 2. A biofilm inhibition rate was calculated by the following formula: Biofilm inhibition rate (6)=(measurement value of untreatment−measurement value after immersion in test liquid)/(measurement value of untreatment)×100

P. fluorescens biofilm [3] = test: Anti-biofilm coat test using fine particle suspension (Test example 2); conditions: water washing, cultivation 30° C. 48 hours, CV staining
Procedure: as §1
P. fluorescens, which is a gram-negative bacillus having high productivity of a biofilm, was used for evaluating an anti-biofilm property. A dried standard product of P. fluorescens was obtained as NBRC No. 14160 and recovered by the following method. DAIGO growth medium 802 (8.4 g) manufactured by Wako Pure Chemical Corporation and 300 mL of purified water were weighed and added into a beaker, and the mixture was stirred at room temperature for about 30 minutes for dispersion. A recovering liquid was sterilized by an autoclave, 0.2 mL of the recovering liquid was taken out using a micropipette and added into an ample of a dried standard product of P. fluorescens, and the mixture was stirred. Separately, 25 mL of SCD broth (Soybean-Casein Digest Broth) manufactured by Wako Pure Chemical Corporation was added in a flask, and […] of the above P. fluorescens suspension was subsequently added thereto. The bacterium was cultivated at 30° C. and a velocity of 150 rpm in a constant temperature incubator shaker for 24 hours for cultivation. After the cultivation, the bacterium was added in 80% glycerol, and the bacterium liquid was preserved at −80° C.
A fine particle suspension of ε-PL was prepared by using the GPE-ized polycarboxylic acid of Production examples 1 to 5 as a test sample liquid for an anti-biofilm coat. A fine particle suspension was prepared by mixing the both of the aqueous solutions of the GPE-ized polycarboxylic acid and ε-PL so that a concentration of the GPE-ized polycarboxylic acid in the fine particle suspension became 0.5 wt % and a concentration of ε-PL became 0.045 wt %. For comparison, a simple ε-PL aqueous solution, an IPMP (4-isopropyl-3-methylphenol, manufactured by Wako Pure Chemical Corporation) ethanol solution and a silver nano particle aqueous suspension manufactured by JAPAN ION Corporation having concentrations of 0.045 wt % were respectively produced. […] The test piece coated with each drug was stirred at 25° C. and 350 rpm for 1 minute for washing with water as a water section environment. The test piece after the water washing was immersed in a broth containing the bacterium liquid prepared in Test example 1, and a biofilm was formed by a cultivation at 30° C. for 48 hours. A concentration was adjusted to 10 cfu/mL by diluting the P. fluorescens liquid with SCD broth. The test piece was taken cut after the cultivation, washed using normal saline, and an amount of a biofilm adhered on the surface of the test piece was measured. A biofilm inhibition rate was calculated by the following formula: Biofilm inhibition rate (%)=(measurement value of untreated test piece−measurement value of test piece coated with test liquid)/(measurement value of untreated test piece)×100

[4] = system: P. fluorescens in biofilm; test: Biofilm bactericidal property test (Test example 5); conditions: untreated 40000 cfu/well
Procedure: A number of a viable bacterium in the biofilm was measured by adding 1 mL of normal saline to the surface material on which a biofilm was adsorbed, destroying the biofilm using a ultrasonic washing machine, collecting an elution liquid, diluting the elution liquid from 10^2 to 10^8 using normal saline, inoculating the diluted solution into petri Film™ broth manufactured by 3M, performing cultivation at 30° C. for 1 week, and counting colonies.
After the test drug was contacted with a biofilm, a bactericidal property against the bacterium in the biofilm was tested. In a microplate of Test example 3 in which a biofilm was formed, 1 mL of each test drug was added for an immersion for 1 minute, 10 minutes, 30 minutes and 60 minutes. The test drug was removed after the lapse of contact time, and the reside was immediately washed using 1 mL of normal saline two times. In the microplate, 1 mL of normal saline was added. The bacterium was eluted in the normal saline by treating the mixture for 1 minute using an ultrasound bath to destroy the biofilm. The eluate was diluted from 10^2 to 10^8 using sterilized normal saline, and inoculated to Petrifilm™ broth manufactured by 3M for a cultivation at 30° C. for 1 week. Then, the number of colonies was counted and the number of viable bacteria was measured. The number of viable bacteria was 40000 cfu/well in the untreatment case; on the one hand, it was confirmed that the bacteria number in a biofilm was reduced by an immersion in the fine particle suspension in Examples 37 to 39 as the number of viable bacteria was reduced.

[5] = adhesion amount 0.12 μg/cm^2 on polyvinyl chloride test piece
[6] = adhesion amount 0.08 μg/cm^2 on polyvinyl chloride test piece
[7] = adhesion amount 0.04 μg/cm^2 on polyvinyl chloride test piece
[8] = adhesion amount 0.02 μg/cm^2 on polyvinyl chloride test piece
[9] = adhesion amount 0.01 μg/cm^2 on polyvinyl chloride test piece

ε-poly-L-lysine [compound 22]
Removal rate of biofilm every contact time (Test example 3) (P. fluorescens biofilm [1]; contact time 1 min): 87%
Removal rate of biofilm every contact time (Test example 3) (P. fluorescens biofilm [1]; contact time 10 min): 87%
Removal rate of biofilm every contact time (Test example 3) (P. fluorescens biofilm [1]; contact time 30 min): 84%
Removal rate of biofilm every contact time (Test example 3) (P. fluorescens biofilm [1]; contact time 60 min): 83%
Removal rate of biofilm every contact time (Test example 4) (P. fluorescens biofilm [2]; contact time 1 min): 22%
Removal rate of biofilm every contact time (Test example 4) (P. fluorescens biofilm [2]; contact time 10 min): 38%
Removal rate of biofilm every contact time (Test example 4) (P. fluorescens biofilm [2]; contact time 30 min): 40%
Removal rate of biofilm every contact time (Test example 4) (P. fluorescens biofilm [2]; contact time 60 min): 45%

Cc1cc(O)ccc1C(C)C [compound 21, 4-isopropyl-3-methylphenol]
Biofilm inhibition rate (P. fluorescens biofilm [3]; [5]): 75%

Cc1cc(O)ccc1C(C)C [compound 24, 4-isopropyl-3-methylphenol]
Removal rate of biofilm every contact time (Test example 3) (P. fluorescens biofilm [1]; contact time 1 min): 60%
Removal rate of biofilm every contact time (Test example 3) (P. fluorescens biofilm [1]; contact time 10 min): 56%
Removal rate of biofilm every contact time (Test example 3) (P. fluorescens biofilm [1]; contact time 30 min): 61%
Removal rate of biofilm every contact time (Test example 3) (P. fluorescens biofilm [1]; contact time 60 min): 52%
Removal rate of biofilm every contact time (Test example 4) (P. fluorescens biofilm [2]; contact time 1 min): 22%
Removal rate of biofilm every contact time (Test example 4) (P. fluorescens biofilm [2]; contact time 10 min): 33%
Removal rate of biofilm every contact time (Test example 4) (P. fluorescens biofilm [2]; contact time 30 min): 37%
Removal rate of biofilm every contact time (Test example 4) (P. fluorescens biofilm [2]; contact time 60 min): 57%

Cc1cc(O)ccc1C(C)C [compound 20, 4-isopropyl-3-methylphenol]
Biofilm inhibition rate (P. fluorescens biofilm [3]; [6]): 66%

Cc1cc(O)ccc1C(C)C [compound 19, 4-isopropyl-3-methylphenol]
Biofilm inhibition rate (P. fluorescens biofilm [3]; [7]): 57%

Cc1cc(O)ccc1C(C)C [compound 18, 4-isopropyl-3-methylphenol]
Biofilm inhibition rate (P. fluorescens biofilm [3]; [8]): 48%

ε-poly-L-lysine [compound 25]
Number of viable bacteria in biofilm every contact time ([4]; contact time 1 min): 1200 cfu/well
Number of viable bacteria in biofilm every contact time ([4]; contact time 10 min): 1200 cfu/well
Number of viable bacteria in biofilm every contact time ([4]; contact time 30 min): 1200 cfu/well
Number of viable bacteria in biofilm every contact time ([4]; contact time 60 min): 1200 cfu/well

ε-poly-L-lysine [compound 8]
Biofilm inhibition rate (P. fluorescens biofilm [3]; [8]): 29%

ε-poly-L-lysine [compound 10]
Biofilm inhibition rate (P. fluorescens biofilm [3]; [6]): 52%

Cc1cc(O)ccc1C(C)C [compound 17, 4-isopropyl-3-methylphenol]
Biofilm inhibition rate (P. fluorescens biofilm [3]; [9]): 41%

Cc1cc(O)ccc1C(C)C [compound 27, 4-isopropyl-3-methylphenol]
Number of viable bacteria in biofilm every contact time ([4]; contact time 1 min): 1900 cfu/well
Number of viable bacteria in biofilm every contact time ([4]; contact time 10 min): 800 cfu/well
Number of viable bacteria in biofilm every contact time ([4]; contact time 30 min): 800 cfu/well
Number of viable bacteria in biofilm every contact time ([4]; contact time 60 min): 800 cfu/well

ε-poly-L-lysine [compound 7]
Biofilm inhibition rate (P. fluorescens biofilm [3]; [9]): 5%

ε-poly-L-lysine [compound 11]
Biofilm inhibition rate (P. fluorescens biofilm [3]; [5]): 57%

ε-poly-L-lysine [compound 9]
Biofilm inhibition rate (P. fluorescens biofilm [3]; [7]): 45%
